Test [1] relates to NPC1-mediated cholesterol export. The conditions noted are these: cited from earlier work.
Test [2] addresses T1, NPC1 (Cricetulus griseus, UniProt Q9JLG3).
T1 construct: CHO-7 cells in the medium are deprived of cholesterol to induce the LDL receptors biosynthesis; endogenous in cells; host or cells: CHO-7 cells
T1 sequence (Q9JLG3 23-1277): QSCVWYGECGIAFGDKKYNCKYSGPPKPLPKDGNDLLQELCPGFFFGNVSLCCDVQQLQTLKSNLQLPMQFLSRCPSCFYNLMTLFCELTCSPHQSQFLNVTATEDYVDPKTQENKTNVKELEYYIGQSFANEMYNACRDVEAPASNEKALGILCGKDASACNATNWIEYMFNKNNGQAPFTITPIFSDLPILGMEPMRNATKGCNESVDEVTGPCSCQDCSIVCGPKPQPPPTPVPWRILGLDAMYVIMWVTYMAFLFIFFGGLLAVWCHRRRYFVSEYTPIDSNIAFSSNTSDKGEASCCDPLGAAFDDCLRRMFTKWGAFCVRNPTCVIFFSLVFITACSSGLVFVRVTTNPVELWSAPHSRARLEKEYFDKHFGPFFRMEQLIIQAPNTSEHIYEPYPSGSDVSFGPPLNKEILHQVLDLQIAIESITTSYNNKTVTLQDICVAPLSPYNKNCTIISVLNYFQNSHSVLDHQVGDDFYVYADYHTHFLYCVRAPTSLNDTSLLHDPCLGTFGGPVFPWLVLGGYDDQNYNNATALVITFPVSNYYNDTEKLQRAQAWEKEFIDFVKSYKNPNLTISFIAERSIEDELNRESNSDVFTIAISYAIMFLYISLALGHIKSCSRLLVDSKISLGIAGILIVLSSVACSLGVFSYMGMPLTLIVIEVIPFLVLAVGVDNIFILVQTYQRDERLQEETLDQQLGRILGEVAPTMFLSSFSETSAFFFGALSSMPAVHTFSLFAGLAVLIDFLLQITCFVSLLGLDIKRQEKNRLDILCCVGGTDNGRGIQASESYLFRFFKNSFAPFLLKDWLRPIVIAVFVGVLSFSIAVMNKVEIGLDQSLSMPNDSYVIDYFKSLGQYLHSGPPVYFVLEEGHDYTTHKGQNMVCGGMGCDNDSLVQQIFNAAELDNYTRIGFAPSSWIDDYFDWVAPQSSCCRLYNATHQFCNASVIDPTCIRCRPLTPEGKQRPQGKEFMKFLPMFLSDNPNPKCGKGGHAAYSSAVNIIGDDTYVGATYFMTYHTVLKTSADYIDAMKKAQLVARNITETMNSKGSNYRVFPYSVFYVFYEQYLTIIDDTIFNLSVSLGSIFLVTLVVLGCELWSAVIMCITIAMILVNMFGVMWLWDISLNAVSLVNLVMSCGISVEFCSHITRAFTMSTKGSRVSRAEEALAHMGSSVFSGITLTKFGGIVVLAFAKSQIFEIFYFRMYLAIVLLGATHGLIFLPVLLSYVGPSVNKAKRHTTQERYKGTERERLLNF
Particulars: cultured cells; cited from earlier work.

For test [3], the target named is T1, NPC1. Briefly: Cholesterol re-esterification (ACAT) assay measuring NPC1-mediated export of cholesterol from lysosomes in CHO-7 cells. It counts as cell-based. The conditions noted are these: for cholesteryl [14C] oleate formed, Repeat 1 / cholesteryl [14C] oleate formed, Repeat 2: Fig. 2 source data; for cholesteryl [14C] oleate formed, Repeat 3 / cholesteryl [14C] oleate formed, Repeat 4: Supplementary Fig. 3 source data. The source says: Itraconazole has three chiral centers (Supplementary Fig. 2a). The pharmaceutical form contains four cis-stereoisomers in a 1:1:1:1 molar ratio (Supplementary Fig. 2a–d). To determine the activity of the cis-stereoisomers, the individual isomers were isolated and identified based on their optical rotation in chloroform following a previous report (Supplementary Fig. 2e)[26]. Then, they were separately tested in a cholesterol re-esterification assay used to measure NPC1-mediated export of cholesterol from lysosomes. Briefly, CHO-7 cells in the medium are deprived of cholesterol to induce the LDL receptors biosynthesis. The cells are then incubated with fetal calf serum (FCS) that contains LDL. The LDL-derived cholesterol will now be transported by functional NPC1 protein from the lysosome to the endoplasmic reticulum (ER). The acyl-CoA:cholesterol actyltransferase named ACAT can now re-esterify the cholesterol in the ER. Therefore, the cells were pulse-labeled with [^14C] oleate and we can measure the synthesis of cholesteroyl [^14C] oleate to evaluate the activity of NPC1 protein. Using this assay, we tested the ability of various itraconazole to inhibit NPC1 activity.
Fig. 2 ACAT activity of itraconazole and ketoconazole in CHO-7 cells. On day 0, CHO-7 cells were set up in medium A with 5% LPDS at 2.5 × 10^5 cells/well in 6-well dish. On day 2, cells were switched to medium A with 5% LPDS containing 50 µM sodium compactin and 50 µM sodium mevalonate. On day 3 the cells received fresh medium B containing compactin and mevalonate with various concentration compounds in the presence of 10% FCS containing lipoproteins. After incubation for 4 h at 37 °C, each cell monolayer was pulse-labeled for 2 h with 0.1 mM sodium [^14C] oleate (5792 dpm/nmol). The cells were then harvested for measurement of their content of cholesteryl [^14C] oleate and [^14C] triglycerides, as described in Methods. […] Itraconazole mixture, isomer A (Supplementary Fig. 2a), isomer B (Supplementary Fig. 2b) and isomer C (Supplementary Fig. 2c) were added at final concentrations of 0.3 μM. The isomer D (Supplementary Fig. 2d), I-Br and ketoconazole were added at final concentrations of 1 μM. The biological repeats are shown as individual values. Source data are provided as a Source Data file.
On day 0, cells were set up in medium A with 5% LPDS at 2.5 × 10^5 cells/well in six-well dish. On day 2, cells were switched to medium A with 5% LPDS containing 50 µM sodium compactin and 50 µM sodium mevalonate. On day 3 the cells received fresh medium B containing compactin and mevalonate with indicated concentration triazole compounds in the presence of 10% FCS containing lipoproteins. After incubation for 4 h at 37 °C, each cell monolayer was pulse-labeled for 2 h with 0.1 mM sodium [^14C] oleate (5792 dpm/nmol). The cells were then harvested for measurement of their content of cholesteryl [^14C] oleate and [^14C] triglycerides.
The rate of incorporation of [^14C] oleate into cholesteryl [^14C] oleate and [^14C] triglycerides by monolayers of NPC1^−/− cells and CHO-7 cells was measured as described previously. In brief, cells were switched to medium containing LPDS supplemented with compactin and mevolonate at 16 h before the experiments. On the day of the experiment, cells were incubated for 4 h with fresh medium containing FCS as a source of cholesterol-containing lipoproteins. Cells were then pulse –labeled for 2 h with 0.1 mM sodium [^14C] oleate. Cells were then washed, and the lipids were extracted in hexane:isopropanol (3:2, vol:vol), separated on a silica gel G thin-layer chromatogram (developed in heptane:ethylether:acetic acid, 90:30:1), and quantified by scintillation counting with the use of an internal standard for recovery.

These results are taken from PMC6952396, “Structural basis for itraconazole-mediated NPC1 inhibition” (Nature Communications, 2020).

For `CCN(CC)CCO[C@H]1CC[C@@]2(C)C(=CC[C@@H]3[C@@H]2CC[C@]2(C)C(=O)CC[C@@H]32)C1` [U18666A], the “inhibition of cholesterol export from lysosomes” value in test [1] is reported as “inhibit cholesterol export from lysosomes”. Besides, the “inhibition of P-X cross-linking to NPC1” value at NPC1 [2] is “inhibited”.

Regarding `CCC(C)n1ncn(-c2ccc(N3CCN(c4ccc(OCC5COC(Cn6cncn6)(c6ccc(Cl)cc6Cl)O5)cc4)CC3)cc2)c1=O` (centres unmarked) [Itra-A], the “cholesteryl [14C] oleate formed, Repeat 1” value on NPC1 [3] (0.01 uM compound) was 3.345 nanomoles formed per hour per milligram cell protein; at NPC1 [3] (0.03 uM compound), 2.117 nanomoles formed per hour per milligram cell protein; at NPC1 [3] (0.06 uM compound) it was 1.347 nanomoles formed per hour per milligram cell protein; at NPC1 [3] (0.1 uM compound) it was 0.6494 nanomoles formed per hour per milligram cell protein; at NPC1 [3] (0.3 uM compound), 0.1828 nanomoles formed per hour per milligram cell protein. Also, the “cholesteryl [14C] oleate formed, Repeat 2” value on NPC1 [3] (0.01 uM compound) was 3.639 nanomoles formed per hour per milligram cell protein; on NPC1 [3] (0.03 uM compound), 3.138 nanomoles formed per hour per milligram cell protein; at NPC1 [3] (0.06 uM compound), 1.367 nanomoles formed per hour per milligram cell protein; at NPC1 [3] (0.1 uM compound), 0.4243 nanomoles formed per hour per milligram cell protein; at NPC1 [3] (0.3 uM compound), 0.9513 nanomoles formed per hour per milligram cell protein. In addition, the “cholesteryl [14C] oleate formed, Repeat 3” value at NPC1 [3] (0.01 uM compound) was 4.944 nanomoles formed per hour per milligram cell protein; at NPC1 [3] (0.03 uM compound), 2.06 nanomoles formed per hour per milligram cell protein; on NPC1 [3] (0.06 uM compound), 2.476 nanomoles formed per hour per milligram cell protein; at NPC1 [3] (0.1 uM compound) it was 0.5346 nanomoles formed per hour per milligram cell protein; on NPC1 [3] (0.3 uM compound), 0.009558 nanomoles formed per hour per milligram cell protein. For the same compound, the “cholesteryl [14C] oleate formed, Repeat 4” value on NPC1 [3] (0.01 uM compound) was 4.771 nanomoles formed per hour per milligram cell protein; at NPC1 [3] (0.03 uM compound), 3.899 nanomoles formed per hour per milligram cell protein; on NPC1 [3] (0.06 uM compound) it was 3.208 nanomoles formed per hour per milligram cell protein; on NPC1 [3] (0.1 uM compound), 0.7537 nanomoles formed per hour per milligram cell protein; at NPC1 [3] (0.3 uM compound) it was 0.01486 nanomoles formed per hour per milligram cell protein. For the same compound, the IC50 at NPC1 [3] (read-out: IC50 (concentration at which each compound inhibited cholesterol esterification by 50%), 10% FCS, 4 h then 2 h [14C] oleate pulse) is 0.02 µM.
